Data on two compounds can be found in patent publication US10894945B2, “Methods for improving proliferation and stemness of limbal stem cells” (CATHOLIC UNIVERSITY INDUSTRY ACADEMIC COOPERATION FOUNDATION, priority 2016, dated 2021).

Test [1] deals with LSC markers p63α and ABCG2, differentiation marker Krt3. The test is described as follows: Western blot of LSC markers and differentiation marker in limbal explant outgrowth cells. The test is classed as cell-based, human. The note with it: for expression of the differentiation marker Krt3: western blot (FIG. 4); for protein expression of LSC marker ABCG2 / protein expression of LSC marker p63α: western blot, compared with control (FIG. 4). The protocol: First, a 0.4-μm pore polyester membrane insert (Costar, NY) with a diameter of 25 mm was put into a 6-well plate, and pre-equilibrated overnight cultured in a supplemented hormonal epithelial medium (SHEM). The SHEM was composed of 950 ml of Dulbecco's modified minimal essential medium (DMEM)/F-12 medium in which DMEM and Ham F12 are mixed in a ratio of 1:1, 50 ml of fetal bovine serum (FBS), 5 ng of a human recombinant epidermal growth factor (EGF), 28 mg of phosphoethanolamine, lx insulin-transferrin-selenium (ITS, Gibco), and 1× penicillin-streptomycin (Gibco). Afterward, the limbal tissue cut into 8 sections with a length of 4 mm according to the method described in Example 1-1 was put on a polyester membrane to dispose an epithelial part face-up, and cultured under an air-liquid interface condition. After 72 hours of culturing, the presence of an encircling island of outgrowth cells were confirmed, and then the medium was replaced with a fresh medium that just covered a surface of the explant, every 72 hours. Here, the cells were cultured with 10 μM of the Wnt inhibitor (IWP2) or 3 μM of the GSK3 inhibitor (CHIR99021), and then experiments that will be described below were performed. Limbal explant outgrowth cells were washed with PBS, and lysed with a lysis buffer containing phosphatase inhibitor cocktail 2 (Sigma-Aldrich) and protease inhibitor cocktail (Roche Diagnostics). A lysate was boiled with a sample-loading buffer for 10 minutes and then centrifuged, resulting in isolation of a supernatant containing proteins in the cells, and a protein concentration was quantified using a BCA Protein Assay kit (Thermo Fisher Scientific, Rockford, Ill.). Afterward, equal amounts of protein in cell lysates were separated by 10% SDS-polyacrylamide gel electrophoresis (SDS-PAGE) under reducing conditions and electro-transferred to a PVDF membrane (Millipore, Billerica, Mass.). Afterward, The membrane was blocked with 5% skim milk in PBS containing 0.1% Tween 20, incubated at 4° C. for 18 h with primary mouse monoclonal antibodies (Abs) recognizing, β-catenin (BD Biosciences), ABCG2 (Abcam), Krt3 (Abcam) or a rabbit polyclonal antibody recognizing p63α (Abcam). After the washes, the membrane was incubated with a horseradish peroxidase-binding anti-mouse or anti-rabbit secondary antibody at room temperature for 1 hour. The membrane incubating with the secondary antibody was washed with 0.1% Tween 20-added PBS three times, treated with an ECL solution (Amersham Biosciences, Sweden) as a chemiluminescence reagent and developed, thereby analyzing an expression level of a protein to be observed. Also, to correct protein levels of the samples, a mouse monoclonal anti-β-actin primary antibody reacted with the membrane, and subsequent procedures were the same as described above. To identify effects of the Wnt/β-catenin signaling on LSC differentiation during the limbal explant culture, expression levels of the LSC markers p63α and ABCG2, and the differentiation marker Krt3 protein in the explant outgrowth cells were detected by western blot analysis according to the method described in Example 1-5.
A general note: Immunoblotting shows a protein as a band on a membrane.

For test [2], the system named is human limbal epithelial cells. Nature of the test: Flow cytometry of JC1 low ratio in isolated limbal epithelial cell (single cell) culture. The test is classed as cell-based. The note with it: Table 1. The protocol: (§1) The limbal tissue divided according to the method described in Example 1-1 was treated with 2 mg/ml Dispase II (Roche, Indianapolis, Ind.) diluted with keratinocyte medium (KSFM; Invitrogen, Carlsbad, Calif.) and overnight cultured at 4° C. Afterward, a limbal epithelium layer was gently sloughed off from its stromal base under the dissecting microscope, the epithelium layer was treated with TrypLE (GIBCO, Denmark) and cultured for 10 minutes, and then triturated with a pipette to generate a single cell suspension. These cells were seeded into a 25T flask coated with human type I collagen (PureCol^R, Biomatrix, SanDiego, Calif.) to be dispensed at a density of 2×10^5 cells/flask, and cultured in Cnt50 medium (Cell-N-Tec, Bern, Switzerland) complemented with bovine pituitary extract for up to 2 weeks.
In order to determine a relative cell size and ABCG2 efflux activity, cells from limal explant outgrowth cultures were harvested by treatment with trypsin, the collected cells were seeded in 6-well plates at a cell density of 2×10^4/well, treated with 250 nM JC1 dye and incubated for 45 minutes. […] Therefore, flow cytometry was performed on the cells treated with the JC1 dye using a FACS Calibur (BD Biosciences) at an emission wavelength of 531(green)/585(orange), and the side population (JC1^low) that was not stained with JC1 was measured. […]

The test system of test [3] is limbal stem cells (LSCs) in limbal explant outgrowth cultures. The test is described as follows: Flow cytometry of JC1 low side population in limbal explant outgrowth cultures. The test is classed as cell-based, human. The note with it: for % JC1^low, Mean: Explant culture, Table 1; for JC1 exclusion cell cohort (JC1^low) / percentage in a lower left quadrant (LLQ): limbal explant culture; for JC1 exclusion cell cohort (JC1^low): 10 μM IWP2 or 3 μM CHIR99021 (FIG. 3); for percentage in a lower left quadrant (LLQ): 10 μM IWP2 or 3 μM CHIR99021, FSC/SSC, stem/precursor somatic cells (FIG. 3). The protocol: First, a 0.4-μm pore polyester membrane insert (Costar, NY) with a diameter of 25 mm was put into a 6-well plate, and pre-equilibrated overnight cultured in a supplemented hormonal epithelial medium (SHEM). The SHEM was composed of 950 ml of Dulbecco's modified minimal essential medium (DMEM)/F-12 medium in which DMEM and Ham F12 are mixed in a ratio of 1:1, 50 ml of fetal bovine serum (FBS), 5 ng of a human recombinant epidermal growth factor (EGF), 28 mg of phosphoethanolamine, lx insulin-transferrin-selenium (ITS, Gibco), and 1× penicillin-streptomycin (Gibco). […] After 72 hours of culturing, the presence of an encircling island of outgrowth cells were confirmed, and then the medium was replaced with a fresh medium that just covered a surface of the explant, every 72 hours. Here, the cells were cultured with 10 μM of the Wnt inhibitor (IWP2) or 3 μM of the GSK3 inhibitor (CHIR99021), and then experiments that will be described below were performed. In order to determine a relative cell size and ABCG2 efflux activity, cells from limal explant outgrowth cultures were harvested by treatment with trypsin, the collected cells were seeded in 6-well plates at a cell density of 2×10^4/well, treated with 250 nM JC1 dye and incubated for 45 minutes. Afterward, the cells were detached again by trypsin treatment and diluted with FACS buffer to perform FACS analysis. JC1 is a dye binding to mitochondria in cells, efflux of the JC1 dye from cells in a side population strongly expressing ATP-binding cassette sub-family G member 2 (ABCG2) results in inhibition of mitochondria staining. Therefore, flow cytometry was performed on the cells treated with the JC1 dye using a FACS Calibur (BD Biosciences) at an emission wavelength of 531(green)/585(orange), and the side population (JC1^low) that was not stained with JC1 was measured.
(In flow cytometry, cells or beads pass a laser one at a time.)

The subject of test [4] is human limbal explant. Nature of the test: Limbal explant outgrowth culture: outgrowth proliferation, area, cell yield, cell density. The note with it: for stained outgrowth area / cell yields: 10 μM IWP2 or 3 μM CHIR99021; for stained outgrowth area: Commassie blue R 250 staining, compared with control (FIG. 2a, 2b); for cell yields: trypan blue, hemocytometer, compared with normal control (FIG. 2c); for outgrowth proliferation rates of the explant: 10 μM IWP2 or 3 μM CHIR99021 in medium, phase contrast microscope, day 4 and 8, compared with control (FIG. 1); for Cell count, Mean: Explant culture, Table 1. The test is classed as cell-based. The protocol: The corneal limbal tissue satisfying the above-described conditions was splitted into […] using a surgical instrument on a horizontal sterile-air-flow hood, and the conjunctival edge of each quarter was immersed shortly in 1% trypan blue (Sigma, USA) to stain conjunctival stroma, and all remnants of conjunctiva were carefully removed using conjunctival scissors. Afterward, a sclera tissue was trimmed away, and then each limbal strip was prepared after being cut to a thickness of 0.5 mm using a sharp blade. First, a 0.4-μm pore polyester membrane insert (Costar, NY) with a diameter of 25 mm was put into a 6-well plate, and pre-equilibrated overnight cultured in a supplemented hormonal epithelial medium (SHEM). The SHEM was composed of 950 ml of Dulbecco's modified minimal essential medium (DMEM)/F-12 medium in which DMEM and Ham F12 are mixed in a ratio of 1:1, 50 ml of fetal bovine serum (FBS), 5 ng of a human recombinant epidermal growth factor (EGF), 28 mg of phosphoethanolamine, lx insulin-transferrin-selenium (ITS, Gibco), and 1× penicillin-streptomycin (Gibco). Afterward, the limbal tissue cut into 8 sections with a length of 4 mm according to the method described in Example 1-1 was put on a polyester membrane to dispose an epithelial part face-up, and cultured under an air-liquid interface condition. After 72 hours of culturing, the presence of an encircling island of outgrowth cells were confirmed, and then the medium was replaced with a fresh medium that just covered a surface of the explant, every 72 hours. Here, the cells were cultured with 10 μM of the Wnt inhibitor (IWP2) or 3 μM of the GSK3 inhibitor (CHIR99021), and then experiments that will be described below were performed. To identify effects of the Wnt/β-catenin signaling on the limbal explant outgrowth cultures, cells were cultured by adding 10 μM of the Wnt inhibitor IWP2 or 3 μM of the Wnt signaling agonist CHIR99021 as a GSK3 inhibitor to a medium under the culture conditions for a human limbal explant cultures according to the methods described in Examples 1-1 and 1-2, and explant outgrowth proliferation was observed using a phase contrast microscope on day 4 and 8. […] In addition, cells were harvested by treating the limbal explant cultures with trypsin, stained with a 0.4% trypan blue solution, and cell yields were measured using a hemocytometer and then cell densities were quantitatively analyzed.

In test [5] the test system is limbal explant outgrowth cells. The test is described as follows: Colony forming efficiency assay of cells harvested from explant outgrowth cultures. Format: cell-based, human. The note with it: cells from treated limbal explant outgrowth; cultured up to day 14; compared with control (FIG. 5). The protocol:
First, a 0.4-μm pore polyester membrane insert (Costar, NY) with a diameter of 25 mm was put into a 6-well plate, and pre-equilibrated overnight cultured in a supplemented hormonal epithelial medium (SHEM). The SHEM was composed of 950 ml of Dulbecco's modified minimal essential medium (DMEM)/F-12 medium in which DMEM and Ham F12 are mixed in a ratio of 1:1, 50 ml of fetal bovine serum (FBS), 5 ng of a human recombinant epidermal growth factor (EGF), 28 mg of phosphoethanolamine, lx insulin-transferrin-selenium (ITS, Gibco), and 1× penicillin-streptomycin (Gibco). […] After 72 hours of culturing, the presence of an encircling island of outgrowth cells were confirmed, and then the medium was replaced with a fresh medium that just covered a surface of the explant, every 72 hours. Here, the cells were cultured with 10 μM of the Wnt inhibitor (IWP2) or 3 μM of the GSK3 inhibitor (CHIR99021), and then experiments that will be described below were performed.

Test [6] deals with human limbal epithelial cells. The test is described as follows: Viable cell count / cell yield in isolated limbal epithelial cell (single cell) culture. Format: cell-based. The note with it: for Cell count, Mean: Epithelial cells (single cell culture), Table 1. The protocol:
as §1
According to Examples 2 to 4, it was identified that, in the limbal explant culture, the Wnt/β-catenin signaling is involved in the stimulation of explant outgrowth proliferation per unit area, and sternness improvement and differentiation inhibition of LSCs. Accordingly, an experiment was conducted to confirm whether the same effects as described above would be obtained, even when limbal epithelial cells were dissociated according to the method described in Example 1-3, and cultured as single cells. To this end, the limbal explant outgrowth cells according to the method described in Example 1-2 and the cells proliferated from the limbal epithelial cells according to the method described in Example 1-3 were harvested, and each type of cells was subjected to FACS analysis to measure a JC1^low ratio.
Based on the results of Example 6-1, cells cultured by the same method as described above were recovered to measure viable cell counts, yields of the limbal epithelial cells were measured.

For `Cc1ccc2nc(NC(=O)CSc3nc4c(c(=O)n3-c3ccccc3)SCC4)sc2c1` [IWP2, N-(6-Methyl-2-benzothiazolyl)-2-[(3,4,6,7-tetrahydro-4-oxo-3-phenylthieno[3,2-d]pyrimidin-2-yl)thio]-acetamide], in test [1], the “expression of the differentiation marker Krt3” value was “barely expressed”, the “protein expression of LSC marker ABCG2” value was “remarkably increased” and the “protein expression of LSC marker p63α” value is recorded as “remarkably increased”. The “% JC1^low, Mean” value in test [2] is reported as 9.8%. Besides, in test [3], the “% JC1^low, Mean” value was determined as 27.9%; the “JC1 exclusion cell cohort (JC1^low)” value was determined as 29.6±2.6%; the “percentage in a lower left quadrant (LLQ)” value came out at 72.8±1.9%. Further, the cell density entry in test [4] (10 μM IWP2, cells/mm^2, compared with control and CHIR99021 group (FIG. 2d)) is on record as “highest cell density”. In addition, in test [4], the stained outgrowth area result is “subsequently increased”; the cell yields entry is “no difference in cell yields”; the “outgrowth proliferation rates of the explant” value is reported as “sequentially decreased”; the “Cell count, Mean” value was 4.3 1 × 10^5. Besides, in test [5], the “colony forming efficiency (CFE)” value is “remarkably higher CFE”. Besides, the “Cell count, Mean” value in test [6] is given as 4.1 1 × 10^5.

On to `Cc1c[nH]c(-c2cnc(NCCNc3ccc(C#N)cn3)nc2-c2ccc(Cl)cc2Cl)n1` [CHIR99021], for which, in test [1], the “expression of the differentiation marker Krt3” value is “increased”, the “protein expression of LSC marker ABCG2” value is listed as “remarkably decreased” and the “protein expression of LSC marker p63α” value was “remarkably decreased”. Also, the “% JC1^low, Mean” value in test [2] is reported as 23.9%. In test [3], the “% JC1^low, Mean” value was found to be 6.4%; the “JC1 exclusion cell cohort (JC1^low)” value is given as 10.9±1.3%; the “percentage in a lower left quadrant (LLQ)” value came to 50.7±10.1%. For the same compound, in test [4], the stained outgrowth area entry is “smaller area”; the cell yields entry is on record as “significantly decreased”; the “outgrowth proliferation rates of the explant” value is reported as “sequentially decreased”; the “Cell count, Mean” value is on record as 0.8 1 × 10^5. In addition, the “colony forming efficiency (CFE)” value in test [5] is “remarkably lower CFE”. In addition, in test [6], the “Cell count, Mean” value is reported as 7.0 1 × 10^5. In addition, in test [6] (single cell culture of limbal tissues (FIG. 6)), the “cell yields (viable cell counts)” value is recorded as “very low”.
